Experimental data taken from patent US20260258420A1, “COMPOSITIONS AND METHODS FOR THE TREATMENT OF HUMAN PAPILLOMAVIRUS-DRIVEN CANCERS” (priority 2023, published 2026).

Legend:
Type in all cases: cell-based
[1] = system: HPV-negative HNSCC cells (HN31, UMSCC4, and MDA886LN) with RB1 knockdown; assay: Apoptosis after RB1 depletion in HPV-negative cells (annexin V, immunoblot)
Description: FIG. 4B, HPV-negative HNSCC cells (HN31, UMSCC4, and MDA886LN) were infected with distinct, lentivirus-based shRNAs (Sh2, Sh4, and Sh6) to stably knock down the expression of RB1 or were treated with control (Ctrl) shRNA. Cells were then treated with 300 nmol/L alisertib for 24 hours before annexin V-PE/7AAD staining and analysis with flow cytometry. The bar graph represents the ratio of apoptosis (late plus early) among different groups. Values are the means±the standard deviations for 3 independent experiments. *P<0.05; **P<0.005; unpaired, 2-tailed Student t-test. FIG. 4C, cells from FIG. 4B were treated with 300 nmol/L alisertib for 24 hours before lysis and immunoblotting with the indicated antibodies. […] Representative results from 3 independent experiments are shown. Cl, cleaved; Fl, full length; GAPDH, glyceraldehyde 3-phosphate dehydrogenase; Ox, overexpression.
To measure apoptosis, TUNEL staining was performed with an APO-BRDU Kit (BD Biosciences, San Jose, CA) and annexin V/propidium iodide staining with an FITC Annexin V Apoptosis Detection Kit PE (eBioscience, San Diego, CA) as described previously (Kalu, et al., Cancer Lett 2018; 431:64-72). […] Data were acquired with a 3-laser, 10-color Gallios flow cytometer (Beckman Coulter, Brea, CA) and analyzed using Kaluza software, RRID:SCR_016182 (Beckman Coulter, Brea, CA). Assays were performed in triplicate, and each test was completed twice on different days.
The lentiviral-based shRNA (GIPZ plasmid) used to knock down human RB1 expression was purchased from Horizon Discovery (Waterbeach, United Kingdom). On the basis of the knockdown efficiency of Rb1 protein expression in 3 HPV-negative cell lines (HN31, UMSCC4, and MDA88 6LN), shRblclones were selected (#2, #4, and #6) for this study. […] The mature antisense sequences were as follows: 5′-[sequence]-3′ (SEQ ID NO:1) (shRb1 #2), 5′-[sequence]-3′ (SEQ ID NO:2) (shRb1 #4), and 5′-[sequence]-3′ (SEQ ID NO:3) (shRb1 #6). To generate lentivirus-expressing shRNA for RB1, HEK 293T cells were transfected with GIPZ-non-silence (for the vector control virus) and GIPZ-shRB1 with jetPEI transfection reagent (RRID:CVCL_0063). The medium was changed 24 hours after transfection and then collected every 48 hours thereafter. The collected lentivirus-containing medium was centrifuged and then filtered (0.45 μM).

[2] = system: HPV-negative cancer cell lines (UMSCC19, FaDu, and HN31); assay: BrdU-TUNEL apoptosis assay, HPV-negative cell lines; conditions: 50 nmol/L barasertib or 200 nmol/L alisertib, 72 hours or 2 doubling times
Description: (§1) BrdU positive apoptotic cells were detected and quantified. The bar graph indicates the percentage of apoptotic cells with fragmented DNA in HPV-positive and HPV-negative cell lines. Values are the means±the standard deviations for 3 independent experiments. FIG. 2B and FIG. 2C show immunoblots of cleaved PARP (Cl. PARP) and cleaved caspase-3 (Cl. Caspase-3) levels in 3-HPV positive and 3 HPV-negative cell lines after barasertib or alisertib treatment for 2 doubling times (FIG. 2B) or 72 hours (FIG. 2C). […] UM47, UMSCC47; GAPDH, glyceraldehyde 3-phosphate dehydrogenase.
(§2) To measure apoptosis, TUNEL staining was performed with an APO-BRDU Kit (BD Biosciences, San Jose, CA) and annexin V/propidium iodide staining with an FITC Annexin V Apoptosis Detection Kit PE (eBioscience, San Diego, CA) as described previously (Kalu, et al., Cancer Lett 2018; 431:64-72). […] Data were acquired with a 3-laser, 10-color Gallios flow cytometer (Beckman Coulter, Brea, CA) and analyzed using Kaluza software, RRID:SCR_016182 (Beckman Coulter, Brea, CA). […] Briefly, after drug treatment, cells were incubated with Senescence Green Probe, a fluorescence-based reagent that contains 2 galactoside moieties that make it specific to […]. The enzyme-cleaved product is retained within the cell, and it emits a fluorogenic signal that was measured at 490/514 nm using a flow cytometer. […]

[3] = system: HPV-positive cancer cell lines (UMSCC47, CaSki, and MS751); assay: BrdU-TUNEL apoptosis assay, HPV-positive cell lines; conditions: 50 nmol/L barasertib or 200 nmol/L alisertib, 72 hours or 2 doubling times
Description: as §1, §2

[4] = system: 2 HPV-positive cell lines transfected with MAD2L1 plasmid; assay: Apoptosis with Mad2 overexpression; conditions: 100 nmol/L, 24 hours
Description: FIG. 6A, mRNA expressions of MAD2L1, BUBIB and TRIP13 in HNSCC HPV-positive (n=70) and HPV-negative (n=447) HNSCC patient tumors from the TCGA (left panel) and in HPV-positive (n=51) and HPV-negative OPSCC [(n=28), right panel]. FIG. 6B, FIG. 6C, TRIP13 was depleted by siRNA in HPV-positive and negative cell lines. Cells were then treated with 100 nmol/L alisertib for 36 hours before being subjected to lysis and immunoblotting with the indicated antibodies (FIG. 6B) or annexin-PE staining to measure apoptosis using flow cytometry (FIG. 6C). FIG. 6D, FIG. 6E, the MAD2L1 plasmid was transiently transfected into 2 HPV-positive cell lines that were then treated with 100 nmol/L alisertib for 24 hours before being subjected to lysis and immunoblotting for the indicated proteins (FIG. 6D) or annexin-PE staining to measure apoptosis (FIG. 6E). Values are the means±the standard deviations for 3 independent experiments (** P≤0.01). Cl, cleaved; Fl, full length; GAPDH, glyceraldehyde 3-phosphate dehydrogenase; Ox, overexpression. FIG. 6F, model of the synthetic lethality between TRIP13 and Aurora kinase A. HPV-positive, Rb deficient cancer cells rely on both TRIP13 and Aurora kinase activity to maintain mitotic fidelity, such that their combined inhibition will lead to a prolonged spindle assembly checkpoint (SAC), irreversible mitotic arrest, and cancer cell death. […]

[5] = system: 17 HPV-negative HNSCC and cervical squamous cancer cell lines; assay: High-throughput drug screen (HTDS), cell death by AOC_LD, HPV-negative cell lines
Description: The concordance correlation coefficient was computed to assess the reproducibility of the normalized growth rates of the 2 replicates. […] A chi-square test was applied to compare drug classification and the cluster membership. The Fisher exact test was applied to compare mutations status (wild-type and mutant) and drugs' response data (sensitive and resistant).
The effects of 864 unique drugs from 51 classes was tested in 16 HPV-positive and 17 HPV-negative HNSCC and cervical squamous cancer cell lines (Table 2) that were characterized previously (Kaiu, et al., Oncotarget 2017; 8(49):86369-83).

[6] = RB1 shRNA, 300 nmol/L, 24 hours

With `COc1cc(Nc2ncc3c(n2)-c2ccc(Cl)cc2C(c2c(F)cccc2OC)=NC3)ccc1C(=O)O` [ALISERTIB, alisertib] the “cleaved PARP levels” value ([1]; RB1 depleted by transient transfection) was “increase in cleaved PARP levels”, the “apoptosis (cleaved caspase-3 and cleaved PARP) in cells with reduced Rb levels” value [1, 6] was “induced significant apoptosis” and the “increase in annexin V-positive apoptotic cells when Rb was depleted” value [1, 6] was “approximately 3 fold”. For the same compound, the “apoptosis in control cells with detectable Rb protein levels” value ([1]; control shRNA, 300 nmol/L, 24 hours) was “did not induce apoptosis”, the “apoptosis (TUNEL)” value [2] was “no appreciable levels of apoptosis” and the TUNEL-positive apoptotic nuclei [3] was “significantly increased”. The “apoptosis with Mad2 overexpression” value [4] was “enhanced apoptosis”, the “HPV negative Resistant (number of cell lines)” value ([5]; resistant = AOC_LD 0) was 16 and the “HPV negative Sensitive (number of cell lines)” value ([5]; sensitive = AOC_LD greater than 0) was 1.
